Target: RET (Homo sapiens (Human), UniProt P07949)
Assay: RET enzyme assay (CisBio HTRF kinEASE)
Format: biochemical

RET, sequence (P07949 29-1114): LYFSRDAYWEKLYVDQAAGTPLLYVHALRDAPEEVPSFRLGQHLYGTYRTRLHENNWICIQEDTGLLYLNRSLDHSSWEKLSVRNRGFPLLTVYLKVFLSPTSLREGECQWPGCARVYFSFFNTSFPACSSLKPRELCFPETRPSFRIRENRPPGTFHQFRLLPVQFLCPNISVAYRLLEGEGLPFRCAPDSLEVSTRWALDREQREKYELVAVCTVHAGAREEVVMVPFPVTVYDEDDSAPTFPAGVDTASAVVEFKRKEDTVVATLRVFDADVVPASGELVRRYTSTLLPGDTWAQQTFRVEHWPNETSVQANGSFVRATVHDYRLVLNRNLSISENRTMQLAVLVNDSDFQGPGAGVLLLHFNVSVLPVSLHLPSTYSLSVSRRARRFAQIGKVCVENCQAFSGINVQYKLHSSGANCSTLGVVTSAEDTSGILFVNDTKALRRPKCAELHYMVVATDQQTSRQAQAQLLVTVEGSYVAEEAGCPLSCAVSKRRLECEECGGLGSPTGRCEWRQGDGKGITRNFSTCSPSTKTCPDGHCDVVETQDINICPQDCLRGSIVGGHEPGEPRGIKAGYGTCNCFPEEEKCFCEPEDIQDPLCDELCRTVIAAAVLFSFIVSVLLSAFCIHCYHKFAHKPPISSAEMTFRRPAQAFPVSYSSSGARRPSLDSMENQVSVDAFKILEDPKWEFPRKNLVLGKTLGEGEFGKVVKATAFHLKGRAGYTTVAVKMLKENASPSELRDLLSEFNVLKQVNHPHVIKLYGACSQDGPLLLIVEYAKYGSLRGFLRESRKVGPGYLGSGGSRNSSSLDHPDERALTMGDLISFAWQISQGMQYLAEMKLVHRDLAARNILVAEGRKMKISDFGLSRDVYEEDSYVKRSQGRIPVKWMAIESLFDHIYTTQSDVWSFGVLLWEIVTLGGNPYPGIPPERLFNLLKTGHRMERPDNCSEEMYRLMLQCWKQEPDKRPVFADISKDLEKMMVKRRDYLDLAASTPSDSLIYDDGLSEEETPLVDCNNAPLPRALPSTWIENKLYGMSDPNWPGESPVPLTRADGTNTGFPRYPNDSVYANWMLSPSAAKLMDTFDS

Structure (SMILES) | activity in the assays described in the Examples section
CC(C)(C)n1nc(-c2cc3ncccc3[nH]2)c2c(N)ncnc21 [1-tert-butyl-3-(1H-pyrrolo[3,2-b]pyridin-2-yl)pyrazolo[3,4-d]pyrimidin-4-amine] | did not exhibit the desired activity
Nc1ncnc2c1c(-c1[nH]c3ncccc3c1Cl)nn2CC(=O)O [2-(4-amino-3-(3-chloro-1H-pyrrolo[2,3-b]pyridin-2-yl)-1H-pyrazolo[3,4-d]pyrimidin-1-yl)acetic acid] | did not exhibit the desired activity

Second part, the molecule after the results:

activity in the assays described in the Examples section | Structure (SMILES)
did not exhibit the desired activity | CC(C)CCn1nc(-c2[nH]c3ccccc3c2Cl)c2c(N)ncnc21 [3-(3-Chloro-1H-indol-2-yl)-1-isopentyl-1H-pyrazolo[3,4-d]pyrimidin-4-amine]
did not exhibit the desired activity | Nc1ncnc2c1c(-c1[nH]c3ccccc3c1Cl)nn2CC1CCNC1 (centres unmarked) [3-(3-chloro-1H-indol-2-yl)-1-(pyrrolidin-3-ylmethyl)-1H-pyrazolo[3,4-d]pyrimidin-4-amine]
did not exhibit the desired activity | Cn1nc(-c2[nH]c3ncccc3c2Cl)c2c(N)ncnc21 [Example 65, 3-(3-Chloro-1H-pyrrolo[2,3-b]pyridin-2-yl)-1-methyl-pyrazolo[3,4-d]pyrimidin-4-amine]

Source: patent US11661423B2, “Heterocyclic compounds as RET kinase inhibitors” (Cancer Research Technology Limited, priority 2016, dated 2023)
